Structures can show the parent of a compound that is named as a salt.
Key:
cdk2/cyclin E = cdk2/cyclin E (Homo sapiens, UniProt P24941); assay: Cyclin-dependent kinase assay, cdk2/cyclin E; settings: CDK2 IC50, nM, GST-pRb substrate, 10 µM ATP
MDA-MB-435 = assay: In vitro proliferation assay (MTT), MDA-MB-435; type: cell-based, human; settings: Homo sapiens, MDA-MB-435, MTT assay; value (SD, n) where given; read-out: MB-435 Breast (IC50 µM)
Protocol: (§1) The proliferation of tumor cells can be measured using a tetrazolium salt-based assay known as the MTT (3-[4,5-Dimethylthiazol-2-yl]-2,5-diphenyltetrazolium bromide) assay. […] For the assay, the cell lines are plated onto 96 well plates at 1000 to 2500 cells/well (depending on the properties of the individual cell lines), left to attach and recover overnight. […] After 3 days, the cells are incubated with MTT dye (3-[4,5-Dimethylthiazol-2-yl]-2,5-diphenyltetrazolium bromide, Sigma # M5655, 10 mg/ml in Hank's Buffered Saline) to estimate the amount of live cells remaining vs. concentration for the test compounds. […] The MTT and culture medium is then removed from the cultures and 200 µl of DMSO is added to solubilize the dye from the cell layer. The absorbance at 570 nm is determined for each culture using a Spectramax plate reader (Molecular Devices).
(§2) IC50s were determined from the raw data from either the MTT or SRB assays.
(§3) All of the cell lines were obtained from American Type Tissue Collection, with the ATCC accession number in parentheticals. MCF-7 and MDA-MB-231 cells were grown in improved minimum essential medium (Biofluids) without phenol red, supplemented with 5 % fetal bovine serum, 0.01 mg/ml gentamicin and 3 mM L-glutamine.

cdk4/cyclin D1 = cdk4/cyclin D1 (Homo sapiens, UniProt P11802); assay: Cyclin-dependent kinase assay, cdk4/cyclin D1; type: biochemical; settings: cyclin D1/cdk4; GST-pRb substrate, 10 µM ATP
cdk1/cyclin B = cdk1/cyclin B (Homo sapiens, UniProt P06493); assay: Cyclin-dependent kinase assay, cdk1/cyclin B; settings: CDK1 IC50, nM, Histone H1, 10 µM ATP
PC-3 = assay: In vitro proliferation assay (MTT), PC-3; type: cell-based, human; settings: Homo sapiens, PC-3, MTT assay; value (SD, n) where given; read-out: PC-3 Prostate (IC50 µM)
Protocol: as §1, §2, §3

Chain of cdk1/cyclin B (P06493 whole entry): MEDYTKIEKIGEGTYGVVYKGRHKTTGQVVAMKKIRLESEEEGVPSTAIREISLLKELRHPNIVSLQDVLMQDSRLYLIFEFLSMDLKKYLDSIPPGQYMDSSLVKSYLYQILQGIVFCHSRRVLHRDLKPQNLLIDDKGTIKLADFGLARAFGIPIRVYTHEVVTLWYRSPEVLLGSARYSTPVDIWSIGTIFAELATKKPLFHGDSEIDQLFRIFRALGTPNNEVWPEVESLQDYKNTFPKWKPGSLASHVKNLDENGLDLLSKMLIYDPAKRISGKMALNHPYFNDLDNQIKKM
Chain of cdk1/cyclin B (P14635 whole entry partner): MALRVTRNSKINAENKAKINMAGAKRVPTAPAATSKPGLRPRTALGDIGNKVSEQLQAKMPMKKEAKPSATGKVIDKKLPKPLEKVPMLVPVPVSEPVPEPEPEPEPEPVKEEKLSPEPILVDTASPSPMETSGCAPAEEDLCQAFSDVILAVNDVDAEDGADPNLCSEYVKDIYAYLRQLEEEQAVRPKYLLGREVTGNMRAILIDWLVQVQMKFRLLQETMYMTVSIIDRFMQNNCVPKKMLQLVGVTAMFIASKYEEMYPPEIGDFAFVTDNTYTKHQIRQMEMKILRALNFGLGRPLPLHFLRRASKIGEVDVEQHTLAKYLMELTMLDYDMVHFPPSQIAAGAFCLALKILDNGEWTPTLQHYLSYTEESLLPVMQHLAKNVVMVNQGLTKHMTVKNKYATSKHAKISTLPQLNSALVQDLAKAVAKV
Chain of cdk4/cyclin D1 (P11802 whole entry): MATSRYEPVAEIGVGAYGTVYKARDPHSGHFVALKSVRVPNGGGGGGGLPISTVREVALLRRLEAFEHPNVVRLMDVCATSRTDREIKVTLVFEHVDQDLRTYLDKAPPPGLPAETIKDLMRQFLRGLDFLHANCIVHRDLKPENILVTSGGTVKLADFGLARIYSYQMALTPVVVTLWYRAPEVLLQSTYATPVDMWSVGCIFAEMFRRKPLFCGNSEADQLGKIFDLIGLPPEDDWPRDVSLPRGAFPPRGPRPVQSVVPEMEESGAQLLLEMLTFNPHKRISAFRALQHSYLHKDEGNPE
Chain of cdk4/cyclin D1 (P24385 whole entry partner): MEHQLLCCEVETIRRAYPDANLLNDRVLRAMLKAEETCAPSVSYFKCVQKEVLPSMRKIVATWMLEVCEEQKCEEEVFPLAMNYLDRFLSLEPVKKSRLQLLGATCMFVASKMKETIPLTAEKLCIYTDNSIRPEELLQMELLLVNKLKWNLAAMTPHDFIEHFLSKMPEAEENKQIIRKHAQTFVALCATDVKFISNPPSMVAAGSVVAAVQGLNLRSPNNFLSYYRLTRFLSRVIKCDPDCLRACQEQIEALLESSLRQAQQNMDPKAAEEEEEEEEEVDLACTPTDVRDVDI

IC50 (cdk2/cyclin E)	IC50 (MDA-MB-435)	IC50 (cdk4/cyclin D1)	IC50 (cdk1/cyclin B)	IC50 (PC-3)	SMILES
56 nM	3 µM	632 nM	27 nM	2.4 µM	CCOC(=O)CC(=O)N1CCC(Nc2nc(N[C@H]3CC[C@H](N)CC3)nc3c2ncn3C2CCCC2)CC1 [compound 29, trans-3-{4-[2-(4-Amino-cyclohexylamino)-9-cyclopentyl-9H-purin-6-ylamino]-piperidin-1-yl}-3-oxo-propionic acid ethyl ester dihydrochloride]
53 nM	5.46 µM	189 nM	24 nM	4.84 µM	COc1ccc(CC(=O)N2CCC(Nc3nc(N[C@H]4CC[C@H](N)CC4)nc4c3ncn4C3CCCC3)CC2)cc1OC [compound 32, trans 1-{4-[2-(4-Amino-cyclohexylamino)-9-cyclopentyl-9H-purin-6-ylamino]-piperidin-1-yl}-2-(3,4-dimethoxy-phenyl)-ethanone dihydrochloride]
55 nM	1.38 µM	766 nM	48 nM	0.98 µM	C/C=C/C(=O)N1CCC(Nc2nc(N[C@H]3CC[C@H](N)CC3)nc3c2ncn3C2CCCC2)CC1 [compound 35, trans (E)-1-{4-[2-(4-Amino-cyclohexylamino)-9-cyclopentyl-9H-purin-6-ylamino]-piperidin-1-yl}-but-2-en-1-one dihydrochloride]
79 nM	0.39 µM	697 nM	45 nM	0.39 µM	N[C@H]1CC[C@H](Nc2nc(NC3CCN(C(=O)CCC4CCCC4)CC3)c3ncn(C4CCCC4)c3n2)CC1 [compound 36, trans-1-{4-[2-(4-Amino-cyclohexylamino)-9-cyclopentyl-9H-purin-6-ylamino]-piperidin-1-yl}-3-cyclopentyl-propan-1-one dihydrochloride]
66 nM	1.28 µM	703 nM	27 nM	1.83 µM	COc1cccc(CC(=O)N2CCC(Nc3nc(N[C@H]4CC[C@H](N)CC4)nc4c3ncn4C3CCCC3)CC2)c1 [compound 38, trans-1-{4-[2-(4-Amino-cyclohexylamino)-9-cyclopentyl-9H-purin-6-ylamino]-piperidin-1-yl}-2-(3-methoxy-phenyl)-ethanone dihydrochloride]
51 nM	0.51 µM	664 nM	66 nM	0.61 µM	N[C@H]1CC[C@H](Nc2nc(NC3CCN(C(=O)C4CCCC4)CC3)c3ncn(C4CCCC4)c3n2)CC1 [compound 39, trans-1-{4-[2-(4-Amino-cyclohexylamino)-9-cyclopentyl-9H-purin-6-ylamino]-piperidin-1-yl}-1-cyclopentyl-methanone]
61 nM	0.22 µM	238 nM	36 nM	0.27 µM	N[C@H]1CC[C@H](Nc2nc(NC3CCN(C(=O)C(c4ccccc4)c4ccccc4)CC3)c3ncn(C4CCCC4)c3n2)CC1 [compound 40, trans-1-{4-[2-(4-Amino-cyclohexylamino)-9-cyclopentyl-9H-purin-6-ylamino]-piperidin-1-yl}-2,2-diphenyl-ethanone dihydrochloride]
51 nM	1.1 µM	103 nM	21 nM	1.06 µM	COc1ccc(CC(=O)N2CCC(Nc3nc(N[C@H]4CC[C@H](N)CC4)nc4c3ncn4C3CCCC3)CC2)cc1 [compound 42, trans-1-{4-[2-(4-Amino-cyclohexylamino)-9-cyclopentyl-9H-purin-6-ylamino]-piperidin-1-yl}-2-(4-methoxy-phenyl)-ethanone dihydrochloride]
14 nM	1.99 µM	361 nM	36 nM	1.8 µM	C[C@H](O)C(=O)N1CCC(Nc2nc(N[C@H]3CC[C@H](N)CC3)nc3c2ncn3C2CCCC2)CC1 [compound 47, trans-(S)-1-{4-[2-(4-Amino-cyclohexylamino)-9-cyclopentyl-9H-purin-6-ylamino]-piperidin-1-yl}-2-hydroxy-propan-1-one dihydrochloride]
61 nM	0.75 µM	503 nM	48 nM	0.84 µM	N[C@H]1CC[C@H](Nc2nc(NC3CCN(C(=O)Cc4ccc(F)cc4)CC3)c3ncn(C4CCCC4)c3n2)CC1 [compound 48, trans-1-{4-[2-(4-Amino-cyclohexylamino)-9-cyclopentyl-9H-purin-6-ylamino]-piperidin-1-yl}-2-(4-fluoro-phenyl)-ethanone dihydrochloride]

Further lines, the compound ahead of its results:

SMILES	IC50 (cdk2/cyclin E)	IC50 (MDA-MB-435)	IC50 (cdk4/cyclin D1)	IC50 (cdk1/cyclin B)	IC50 (PC-3)
COc1cc(C(=O)N2CCC(Nc3nc(N[C@H]4CC[C@H](N)CC4)nc4c3ncn4C3CCCC3)CC2)cc(OC)c1OC [compound 16, trans-1-{4-[2-(4-Amino-cyclohexylamino)-9-cyclopentyl-9H-purin-6-ylamino]-piperidin-1-yl}-1-(3,4,5-trimethoxy-phenyl)-methanone]	83 nM	8.52 µM	372 nM	43 nM	7.91 µM
COc1cc(OC)cc(C(=O)N2CCC(Nc3nc(N[C@H]4CC[C@H](N)CC4)nc4c3ncn4C3CCCC3)CC2)c1 [compound 17, trans-1-{4-[2-(4-Amino-cyclohexylamino)-9-cyclopentyl-9H-purin-6-ylamino]-piperidin-1-yl}-1-(3,5-dimethoxy-phenyl)-methanone]	189 nM	2.22 µM	467 nM	89 nM	1.82 µM
CCCCOc1ccc(C(=O)N2CCC(Nc3nc(N[C@H]4CC[C@H](N)CC4)nc4c3ncn4C3CCCC3)CC2)cc1 [compound 18, trans-1-{4-[2-(4-Amino-cyclohexylamino)-9-cyclopentyl-9H-purin-6-ylamino]-piperidin-1-yl}-1-(4-butoxy-phenyl)-methanone]	336 nM	2.76 µM	1490 nM	506 nM	3.43 µM
CCCCCCCOc1ccc(C(=O)N2CCC(Nc3nc(N[C@H]4CC[C@H](N)CC4)nc4c3ncn4C3CCCC3)CC2)cc1 [compound 19, trans-1-{4-[2-(4-Amino-cyclohexylamino)-9-cyclopentyl-9H-purin-6-ylamino]-piperidin-1-yl}-1-(4-heptoxy-phenyl)-methanone]	567 nM	0.58 µM	883 nM	62 nM	0.96 µM
CC(C)(C)c1ccc(C(=O)N2CCC(Nc3nc(N[C@H]4CC[C@H](N)CC4)nc4c3ncn4C3CCCC3)CC2)cc1 [compound 20, trans-1-{4-[2-(4-Amino-cyclohexylamino)-9-cyclopentyl-9H-purin-6-ylamino]-piperidin-1-yl}-1-(4-tert-butyl-phenyl)-methanone]	352 nM	2.25 µM	682 nM	161 nM	1.96 µM
CCCCCc1ccc(C(=O)N2CCC(Nc3nc(N[C@H]4CC[C@H](N)CC4)nc4c3ncn4C3CCCC3)CC2)cc1 [compound 22, trans-1-{4-[2-(4-Amino-cyclohexylamino)-9-cyclopentyl-9H-purin-6-ylamino]-piperidin-1-yl}-1-(4-pentyl-phenyl)-methanone]	571 nM	1.61 µM	383 nM	182 nM	1.86 µM
CCCCCCc1ccc(C(=O)N2CCC(Nc3nc(N[C@H]4CC[C@H](N)CC4)nc4c3ncn4C3CCCC3)CC2)cc1 [compound 23, trans-1-{4-[2-(4-Amino-cyclohexylamino)-9-cyclopentyl-9H-purin-6-ylamino]-piperidin-1-yl}-1-(4-hexyl-phenyl)-methanone]	596 nM	1.08 µM	629 nM	300 nM	2.27 µM
N#Cc1ccc(C(=O)N2CCC(Nc3nc(N[C@H]4CC[C@H](N)CC4)nc4c3ncn4C3CCCC3)CC2)cc1 [compound 25, trans-1-{4-[2-(4-Amino-cyclohexylamino)-9-cyclopentyl-9H-purin-6-ylamino]-piperidin-1-yl}-1-(4-cyano-phenyl)-methanone]	79 nM	3.76 µM	629 nM	56 nM	2.72 µM
N[C@H]1CC[C@H](Nc2nc(NC3CCN(C(=O)c4cccc([N+](=O)[O-])c4)CC3)c3ncn(C4CCCC4)c3n2)CC1 [compound 26, trans-1-{4-[2-(4-Amino-cyclohexylamino)-9-cyclopentyl-9H-purin-6-ylamino]-piperidin-1-yl}-1-(3-nitro-phenyl)-methanone]	78 nM	2.18 µM	564 nM	31 nM	1.67 µM

Reference: EP1377579B1 (Aventis Pharmaceuticals Inc., priority 2000, dated 2002)
